Measured values published in patent US20250000864A1, “GONADOTROPIN-RELEASING HORMONE ANTAGONIST, AND PREPARATION METHOD THEREFOR AND USE THEREOF” (SHANDONG LUYE PHARMACEUTICAL CO., LTD., priority 2021, published 2025).
Like-named read-outs stand apart in the source and are kept apart here.

What was measured:
[1] = Caco-2 two-way permeability and efflux; type: in vitro ADME; settings: human; for Papp A→B at 120 min / Papp B→A at 120 min: Caco-2, 120 min incubation
Protocol: Instrument: water purification equipment, ELGA LabWate; biosafety cabinet, NUAIRE; thermostatic CO2 incubator, Thermo; microplate reader, PerkinElmer; LC-MS/MS, AB SCIEX.
Method: A Caco-2 monolayer cell model was used to determine the two-way permeability of the test substances and evaluate whether the test substances were transported by the efflux of a transporter. In the experiment, Caco-2 cells were seeded into a 96-well cell culture plate and cultured for 28 consecutive days for transport assay. The test substances were each administered on two sides. After being incubated for 120 min, the samples at the apical end A, at the basal end B, and with cell lysis were collected and quantitatively determined for the content of the test substances by using a liquid chromatography-tandem mass spectrometry (LC/MS/MS) method. The apparent permeability coefficient (Papp) in the direction from the apical end to the basal end (A-B) and in the direction from the basal end to the apical end (B-A) and the efflux ratio were calculated from the concentrations of the test substances.

[2] = Metabolic stability in human liver microsomes; type: in vitro ADME; settings: for Residual content at 60 min: NADPH, 37° C.; for microsomal CLint: read-out: CLint(mic)
Protocol: (§1) Liver Microsome: Rat Liver Microsome and Human Liver Microsome Reagent: NADPH, Roche Diagnostics Gmbh; ACN, Merck Chemical; Tolbutamide, Sigma. Instrument: water purification equipment, Millipore; electronic balance, METTLER TOLEDO; high-speed benchtop centrifuge, Thermo; water bath thermostatic oscillator, Shanghai Yiheng Technical Co., Ltd.; vortex oscillator, Thermo; LC-MS/MS, AB SCIEX. Method: the metabolic stability of test substances was evaluated by using SD rat and human liver microsomes. The test substances were incubated with liver microsomes from different species by using NADPH under a water bath at 37° C. A cold acetonitrile solution containing a Tolbutamide internal standard substance was added at a specified time point to terminate the reaction. The samples were pre-treated and then subjected to semi-quantitative analysis by LC-MS/MS. The retention times of the analytes and Tolbutamide internal standard, the acquisition of chromatograms, and the integration of chromatograms were processed using software Analyst (A Sciex, Framingham, Massachusetts, USA). The in vitro elimination rate constant Ke of the samples was obtained by converting the ratio of the peak area of the samples to the peak area of the internal standard into the residual percentage, and the in vitro clearance rate and the half-life of the test samples were calculated.

[3] = Metabolic stability in rat liver microsomes; type: in vitro ADME, SD rat; settings: for Residual content at 60 min / CLint scaled / half-life / microsomal CLint / CLint(liver): Rat liver microsomes; for Residual content at 60 min: NADPH, 37° C.; for CLint scaled / half-life / microsomal CLint: Sprague-Dawley (SD); for microsomal CLint: read-out: CLint(mic)
Protocol: as §1

human GnRHR = human GnRHR (Homo sapiens (Human), UniProt P30968); assay: In vitro antagonistic activity screening (FLIPR calcium fluorescence, Leuprolide acetate stimulation); type: cell-based; settings: HEK293 cells stably expressing human GnRHR
Protocol: Cell: HEK293 cells stably expressing human GnRHR (WuXi AppTec (Shanghai) Co., Ltd.) Equipment: 384-well plate, Greiner; Vi-cell XR Cell Viability Analyzer, Beckman Coulter; incubator, Thermo.
Method: HEK293 cells stably expressing human GnRHR were seeded into a 384-well plate at a density of 20,000/well. Fluo-4 Direct™ No-wash Loading Buffer (Invitrogen) was added to each well the next day, and then the plate was put back into an incubator, incubated at 37° C. for 50 min, and then incubated at room temperature for 10 min. Test compounds were formulated in DMSO. […] Fluorescence values were determined using a FLIPR Tetra high throughput real-time fluorescence detection and assay system. Then 10 μL of Leuprolide acetate was added, and fluorescence values were determined. IC50 and IC90 of the compounds were calculated using Prism.

[4] = biological target: human hERG potassium channel (Homo sapiens (Human), UniProt Q12809); assay: hERG test (QPatch automated patch clamp, CHO cells); type: cell-based
Protocol: Cell: CHO cells stably expressing a human hERG potassium channel (WuXi AppTec (Shanghai) Co., Ltd.) Reagent: physiological solution (pH=7.4): 140 mM NaCl, 4 mM KCl, 2 mM CaCl2), 1 mM MgCl2, 5 mM Glucose, 10 mM HEPES, Osmolarity: about 298 mOsm; external solution (pH=7.4): 80 mM NaCl, 4 mM KCl, 2 mM CaCl2), 1 mM MgCl2, 5 mM Glucose, 60 mM NMDG, 10 mM HEPES, Osmolarity: about 289 mOsm; internal solution (pH=7.4): 10 mM NaCl, 10 mM KCl, 110 mM KF, 10 mM HEPES, EGTA: […], Osmolarity: about 280 mOsm.
Equipment: QPatch high-throughput automated patch clamp system, Sophion.
Method: CHO cells stably expressing a human hERG potassium channel were digested with TrypLE and resuspended in a physiological solution for later use. The single-cell high-impedance sealing and whole-cell mode formation processes were automatically completed by Qpatch. The clamping voltage for the cells was −80 mV. Then a voltage of −50 mV was applied for 80 ms to subtract (current) leakage, and a voltage of +20 mV was applied for 4800 ms to open the hERG channel. The voltage was then reduced to −50 mV and maintained for 5000 ms. This process was used for data collection and analysis. Finally, the voltage was returned to the clamping voltage (−80 mV, 1000 ms). This process was repeated every 20,000 ms. 40 μL of solvent control (external solution+DMSO) was added first, and the test was performed for […] to collect baseline data. Then, 40 μL of each of the test compounds was added at various concentrations, and the test was performed for no less than […]. The compounds were each dissolved in DMSO, with test concentrations being 0.30 μM, 1.00 μM, 3.00 μM, 10.00 μM, and 30.00 μM. The IC50 data for the hERG test were obtained by analyzing using DataControl, Excel2013, and Prism.

[5] = Pharmacokinetics in SD rats (i.v. and i.g.); type: in vivo; settings: for bioavailability: read-out: F (absolute bioavailability)
Protocol: Instrument: water purification equipment, Millipore; electronic balance, METTLER TOLEDO; high-speed benchtop centrifuge, Thermo; water bath thermostatic oscillator, Shanghai Yiheng Technical Co., Ltd.; vortex oscillator, Thermo; LC-MS/MS, AB SCIEX.
Method: all compounds were formulated in DMSO and 20% solutol. In the pharmacokinetic experiment, the administration dose for the intravenous group (i.v) was 1 mg/kg, and the administration dose for the intragastric group (i.g) was 12 mg/kg, each group containing 3 rats. Blood was collected from the orbit of the rats before (0 h) the administration and at set time points after administration. In the tissue distribution experiment, the rats were subjected to intragastric administration at a dose of 12 mg/kg. […] The […] in a heparinized EP tube and centrifuged at 13,500 rpm for 10 min to isolate the plasma. The pituitary was homogenized with water in a certain proportion. The plasma and pituitary homogenates were pre-treated and then analyzed by LC-MS/MS to determine the concentration of the test substances in the plasma and the pituitary. The plasma drug concentration data were processed in a non-compartmental model using WinNonlin™ Version 6.3 (Pharsight, Mountain View, CA) pharmacokinetic software.

[6] = male, Sprague-Dawley (SD), rat, plasma, iv, i.v 1 mg/kg
[7] = male, Sprague-Dawley (SD), rat, plasma, po, i.g 12 mg/kg
[8] = male, Sprague-Dawley (SD), rat, plasma, po, i.g 12 mg/kg vs i.v 1 mg/kg
[9] = male, rat, plasma, intravenous, i.v 1 mg/kg
[10] = male, rat, plasma, oral, i.g 12 mg/kg

human GnRHR, sequence (P30968 whole entry): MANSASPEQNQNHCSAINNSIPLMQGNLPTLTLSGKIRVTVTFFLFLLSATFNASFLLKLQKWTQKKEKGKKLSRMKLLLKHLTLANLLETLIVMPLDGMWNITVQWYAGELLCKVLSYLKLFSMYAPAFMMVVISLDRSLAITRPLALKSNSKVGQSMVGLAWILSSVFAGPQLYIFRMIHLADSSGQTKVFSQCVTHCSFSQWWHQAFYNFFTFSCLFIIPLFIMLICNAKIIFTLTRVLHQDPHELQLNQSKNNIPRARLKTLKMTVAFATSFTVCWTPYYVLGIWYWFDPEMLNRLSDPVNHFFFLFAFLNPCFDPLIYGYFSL
human hERG potassium channel, sequence (Q12809 whole entry): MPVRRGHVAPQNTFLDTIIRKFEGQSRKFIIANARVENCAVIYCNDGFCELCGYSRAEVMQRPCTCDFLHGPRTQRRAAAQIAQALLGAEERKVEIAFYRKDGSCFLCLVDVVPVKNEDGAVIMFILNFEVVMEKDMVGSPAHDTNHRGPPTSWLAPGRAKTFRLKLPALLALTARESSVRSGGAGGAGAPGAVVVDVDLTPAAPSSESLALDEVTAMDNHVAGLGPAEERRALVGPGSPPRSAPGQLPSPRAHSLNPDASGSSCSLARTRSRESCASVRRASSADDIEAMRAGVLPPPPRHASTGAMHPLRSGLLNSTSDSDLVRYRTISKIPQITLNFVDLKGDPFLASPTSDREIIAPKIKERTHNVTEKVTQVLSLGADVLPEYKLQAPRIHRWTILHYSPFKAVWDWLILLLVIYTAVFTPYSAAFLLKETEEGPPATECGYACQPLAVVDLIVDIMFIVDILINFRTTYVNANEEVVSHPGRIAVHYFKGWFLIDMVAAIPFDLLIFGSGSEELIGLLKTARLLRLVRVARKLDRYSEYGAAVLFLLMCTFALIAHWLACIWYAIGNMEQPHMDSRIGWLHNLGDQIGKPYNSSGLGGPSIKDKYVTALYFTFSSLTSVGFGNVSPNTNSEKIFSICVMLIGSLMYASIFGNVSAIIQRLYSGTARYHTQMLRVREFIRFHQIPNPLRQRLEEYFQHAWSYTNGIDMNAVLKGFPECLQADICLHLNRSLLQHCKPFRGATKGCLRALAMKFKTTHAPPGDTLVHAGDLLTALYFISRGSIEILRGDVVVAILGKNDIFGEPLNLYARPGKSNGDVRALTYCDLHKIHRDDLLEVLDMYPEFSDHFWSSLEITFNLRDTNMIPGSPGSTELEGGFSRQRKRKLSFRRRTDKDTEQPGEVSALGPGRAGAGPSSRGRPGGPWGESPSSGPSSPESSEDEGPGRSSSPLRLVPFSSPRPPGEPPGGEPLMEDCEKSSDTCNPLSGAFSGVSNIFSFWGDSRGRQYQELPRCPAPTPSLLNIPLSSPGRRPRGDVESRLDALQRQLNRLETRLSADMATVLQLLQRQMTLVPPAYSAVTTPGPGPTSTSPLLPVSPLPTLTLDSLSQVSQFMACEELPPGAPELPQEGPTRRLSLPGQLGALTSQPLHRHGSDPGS

Compound | Papp A→B at 120 min [1] [×10⁻⁶ cm/s] | Papp B→A at 120 min [1] [×10⁻⁶ cm/s] | CLint scaled [2] [mL/min/kg] | half-life [2] [h] | Residual content at 60 min [2] [%] | microsomal CLint [2] [µL/min/mg] | Residual content at 60 min [3] [%] | CLint scaled [3] [mL/min/kg] | half-life [3] [h] | microsomal CLint [3] [µL/min/mg] | other results
CONC(=O)Nc1ccc(-c2sc3c(c2CN(C)C)c(=O)n(-c2ccc(OC)nn2)c(=O)n3Cc2c(F)cccc2C(F)(F)F)cc1 [Compound 5] | 0.011 | 4.58 | < 6.75 | > 3.1 | 89.0 | < 7.5 | 98.7 | < 13.5 | > 3.1 | < 7.5 | –
COc1ccc(-n2c(=O)c3c(CN(C)C)c(-c4ccc(NC(=O)NOCC(F)F)cc4)sc3n(Cc3c(F)cccc3F)c2=O)nn1 [Compound 7] | 0.0101 | 15.6 | – | 2.82 | 75.5 | 8.2 | 47.0 | – | 0.917 | 25.2 | CLint(liver) [2]: 7.38 mL/min/kg; CLint(liver) [3]: 45.4 mL/min/kg
CONC(=O)Nc1ccc(-c2oc3c(c2CN(C)C)c(=O)n(-c2ccc(OC)nn2)c(=O)n3Cc2c(F)cccc2F)cc1 [Compound 4] | 0.0933 | 29.4 | < 6.75 | > 3.1 | 104 | < 7.5 | 89.9 | < 13.5 | > 3.1 | < 7.5 | IC50 (human GnRHR; read-out: Functional IC50): 12 nM; IC90 (human GnRHR; read-out: Functional IC90): 92.3 nM; efflux ratio at 120 min ([1]; Caco-2, read-out: Efflux ratio): 316; IC50 ([4]; CHO cells stably expressing human hERG potassium channel): 4440 nM; Inhibitory activity on the human hERG potassium channel compared with Relugolix ([4]; in words, vs Relugolix): equal to or less than that of Relugolix; Clearance in the SD rat liver microsome (in words) ([3]; SD rat liver microsome): low clearance
CONC(=O)Nc1ccc(-c2sc3c(c2CN(C)C)c(=O)n(-c2cccc(OC(F)F)c2F)c(=O)n3Cc2c(F)cccc2F)cc1 [Compound 3] | 0.126 | 18 | 17.5 | 1.19 | 55.5 | 19.4 | 34.5 | 62.6 | 0.663 | 34.8 | AUC(0-t) [5, 6]: 271 ± 49 ng·h/mL; C0 [5, 6]: 198 ± 4 ng/mL; MRT last [5, 6]: 3.83 ± 0.63 h; half-life [5, 6]: 4.34 ± 1 h; AUC(0-t) [5, 7]: 596 ± 231 ng·h/mL; Cmax [5, 7]: 82.7 ± 10.1 ng/mL; MRT last [5, 7]: 7.3 ± 1.13 h; half-life [5, 7]: 4.11 h; bioavailability [5, 8]: 18.3%; Tmax ([5]; male, Sprague-Dawley (SD), rat, plasma, po, i.g 12 mg/kg, read-out: Tmax): 6 ± 2.83 h
CONC(=O)Nc1ccc(-c2sc3c(c2CN(C)C)c(=O)n(-c2ccc(OC)nn2)c(=O)n3Cc2c(F)cccc2F)cc1 [Relugolix, reference compound] | 0.00716 | 13.8 | – | 3.98 | 86.4 | 5.8 | 58.0 | – | 1.41 | 16.4 | CLint(liver) [2]: 5.22 mL/min/kg; CLint(liver) [3]: 29.5 mL/min/kg; T1/2 ([5]; i.g 12 mg/kg): 3.88 ± 0.57 h; bioavailability [5, 8]: 5.74%
CNc1ccc(-n2c(=O)c3c(CN(C)C)c(-c4ccc(NC(=O)NOC)cc4)sc3n(Cc3c(F)cccc3F)c2=O)nn1 [Compound 6] | 0.0504 | 0.504 | < 6.75 | > 3.1 | 95.9 | < 7.5 | 57.1 | 34.9 | 1.19 | 19.4 | –
CONC(=O)Nc1ccc(-c2sc3c(c2CN(C)CCOC(F)(F)F)c(=O)n(-c2ccc(OC)nn2)c(=O)n3Cc2c(F)cccc2F)cc1 [Compound 1] | – | – | – | – | – | – | – | – | – | – | T1/2 ([5]; i.g 12 mg/kg): 4.86 ± 3.05 h; Tmax ([5]; i.g 12 mg/kg): 1.13 ± 0.63 h; F (absolute bioavailability) ([5]; i.g 12 mg/kg vs i.v 1 mg/kg): 44.7%; T1/2 ([5]; i.v 1 mg/kg): 2.79 ± 0.87 h; AUC(0-t) [5, 9]: 992 ± 226 ng·h/mL; C0 [5, 9]: 2830 ± 454 ng/mL; MRT last [5, 9]: 0.539 ± 0.041 h; AUC(0-t) [5, 10]: 5320 ± 1210 ng·h/mL; Cmax [5, 10]: 664 ± 123 ng/mL; MRT last [5, 10]: 6.02 ± 0.93 h
